Data taken from ChEMBL document CHEMBL4507260 (2021).

Key:
Settings in all cases: Compound concentration 1000.0 nM
[1] = tested on: Tyrosine-protein kinase ABL1 (Homo sapiens), P00519 [F317L]
[2] = tested on: Tyrosine-protein kinase ABL1 (Homo sapiens), P00519 [Q252H]
[3] = target: Ankyrin repeat and protein kinase domain-containing protein 1 (Homo sapiens) (UniProt Q8NFD2)
[4] = target: BMP-2-inducible protein kinase (Homo sapiens) (UniProt Q9NSY1)
[5] = target: Bone morphogenetic protein receptor type-2 (Homo sapiens) (UniProt Q13873)
[6] = target: Cyclin-dependent kinase 19 (Homo sapiens) (UniProt Q9BWU1)
[7] = target: Cyclin-dependent kinase 2 (Homo sapiens) (UniProt P24941)
[8] = target: Cyclin-dependent kinase-like 5 (Homo sapiens) (UniProt O76039)
[9] = target: Casein kinase I isoform alpha (Homo sapiens) (UniProt P48729)
[10] = target: Serine/threonine-protein kinase 17A (Homo sapiens) (UniProt Q9UEE5)
[11] = target: Dual specificity tyrosine-phosphorylation-regulated kinase 1B (Homo sapiens) (UniProt Q9Y463)
[12] = tested on: Epidermal growth factor receptor (Homo sapiens), P00533 [G719S]
[13] = target: Mitogen-activated protein kinase 7 (Homo sapiens) (UniProt Q13164)
Mitogen-activated protein kinase 7 (Homo sapiens), sequence (Q13164 2-816 limits assumed): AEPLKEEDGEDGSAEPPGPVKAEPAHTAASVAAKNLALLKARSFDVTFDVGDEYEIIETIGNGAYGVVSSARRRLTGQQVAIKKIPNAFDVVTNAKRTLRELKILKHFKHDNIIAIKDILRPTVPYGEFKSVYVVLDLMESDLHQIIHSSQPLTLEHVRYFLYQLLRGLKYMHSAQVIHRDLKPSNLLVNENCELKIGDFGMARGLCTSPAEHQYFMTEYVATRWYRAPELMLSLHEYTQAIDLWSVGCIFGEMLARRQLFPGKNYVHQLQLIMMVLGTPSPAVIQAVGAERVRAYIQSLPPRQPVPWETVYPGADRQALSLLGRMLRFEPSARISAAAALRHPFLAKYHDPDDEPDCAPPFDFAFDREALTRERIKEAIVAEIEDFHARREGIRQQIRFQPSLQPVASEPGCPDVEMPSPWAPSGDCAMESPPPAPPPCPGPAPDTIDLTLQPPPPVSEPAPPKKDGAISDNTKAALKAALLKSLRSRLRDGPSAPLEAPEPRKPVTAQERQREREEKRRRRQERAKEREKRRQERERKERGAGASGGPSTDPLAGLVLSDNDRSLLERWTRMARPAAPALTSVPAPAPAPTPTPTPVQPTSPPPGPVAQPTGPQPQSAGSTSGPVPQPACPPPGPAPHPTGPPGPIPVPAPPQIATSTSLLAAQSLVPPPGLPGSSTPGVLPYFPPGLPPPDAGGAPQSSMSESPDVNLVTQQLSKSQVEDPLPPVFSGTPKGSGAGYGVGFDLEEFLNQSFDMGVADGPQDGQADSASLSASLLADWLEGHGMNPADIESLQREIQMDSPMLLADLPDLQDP

[14] = target: Serine/threonine-protein kinase/endoribonuclease IRE1 (Homo sapiens) (UniProt O75460)
Serine/threonine-protein kinase/endoribonuclease IRE1 (Homo sapiens), sequence (O75460 19-977 limits assumed): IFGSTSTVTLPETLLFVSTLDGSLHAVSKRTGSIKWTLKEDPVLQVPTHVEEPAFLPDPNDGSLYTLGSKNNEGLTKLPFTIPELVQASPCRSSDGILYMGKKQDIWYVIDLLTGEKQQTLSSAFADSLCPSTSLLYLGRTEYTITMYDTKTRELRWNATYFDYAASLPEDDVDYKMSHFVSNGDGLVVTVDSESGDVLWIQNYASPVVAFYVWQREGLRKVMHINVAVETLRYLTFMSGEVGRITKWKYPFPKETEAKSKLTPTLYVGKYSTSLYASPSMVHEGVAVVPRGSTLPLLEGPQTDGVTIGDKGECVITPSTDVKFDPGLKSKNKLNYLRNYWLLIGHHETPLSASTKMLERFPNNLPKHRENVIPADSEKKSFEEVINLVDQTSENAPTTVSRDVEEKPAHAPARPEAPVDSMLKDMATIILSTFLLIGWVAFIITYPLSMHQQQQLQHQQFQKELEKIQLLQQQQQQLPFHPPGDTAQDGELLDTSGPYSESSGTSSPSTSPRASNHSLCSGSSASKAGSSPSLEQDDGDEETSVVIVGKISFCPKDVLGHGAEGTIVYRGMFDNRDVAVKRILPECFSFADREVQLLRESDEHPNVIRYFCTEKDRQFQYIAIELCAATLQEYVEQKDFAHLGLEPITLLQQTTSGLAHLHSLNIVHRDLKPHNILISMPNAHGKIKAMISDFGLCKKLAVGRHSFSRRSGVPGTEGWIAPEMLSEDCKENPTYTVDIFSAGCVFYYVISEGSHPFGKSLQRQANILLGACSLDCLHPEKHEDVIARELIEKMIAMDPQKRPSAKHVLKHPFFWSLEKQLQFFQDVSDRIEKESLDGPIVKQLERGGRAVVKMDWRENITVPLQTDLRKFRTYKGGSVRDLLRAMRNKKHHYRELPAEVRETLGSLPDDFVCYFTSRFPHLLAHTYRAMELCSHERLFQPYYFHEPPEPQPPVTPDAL

[15] = target: Tyrosine-protein kinase Fgr (Homo sapiens) (UniProt P09769)
[16] = target: Vascular endothelial growth factor receptor 1 (Homo sapiens) (UniProt P17948)
[17] = target: Rhodopsin kinase GRK7 (Homo sapiens) (UniProt Q8WTQ7)
[18] = target: Homeodomain-interacting protein kinase 2 (Homo sapiens) (UniProt Q9H2X6)
[19] = target: Hormonally up-regulated neu tumor-associated kinase (Homo sapiens) (UniProt P57058)
[20] = target: Insulin receptor-related protein (Homo sapiens) (UniProt P14616)
[21] = target: Interleukin-1 receptor-associated kinase 1 (Homo sapiens) (UniProt P51617)
[22] = target: Tyrosine-protein kinase JAK3 (Homo sapiens) (UniProt P52333)
[23] = tested on: Mast/stem cell growth factor receptor Kit (Homo sapiens), P10721 [D816H]
[24] = target: Serine/threonine-protein kinase MAK (Homo sapiens) (UniProt P20794)
[25] = target: Mitogen-activated protein kinase kinase kinase 15 (Homo sapiens) (UniProt Q6ZN16)
[26] = target: Mitogen-activated protein kinase kinase kinase 4 (Homo sapiens) (UniProt Q9Y6R4)
[27] = target: Dual specificity mitogen-activated protein kinase kinase 1 (Homo sapiens) (UniProt Q02750)
[28] = tested on: Hepatocyte growth factor receptor (Homo sapiens), P08581 [Y1235D]
[29] = target: Myosin-IIIa (Homo sapiens) (UniProt Q8NEV4)
[30] = target: Serine/threonine-protein kinase Nek2 (Homo sapiens) (UniProt P51955)
Serine/threonine-protein kinase Nek2 (Homo sapiens), sequence (P51955 whole entry): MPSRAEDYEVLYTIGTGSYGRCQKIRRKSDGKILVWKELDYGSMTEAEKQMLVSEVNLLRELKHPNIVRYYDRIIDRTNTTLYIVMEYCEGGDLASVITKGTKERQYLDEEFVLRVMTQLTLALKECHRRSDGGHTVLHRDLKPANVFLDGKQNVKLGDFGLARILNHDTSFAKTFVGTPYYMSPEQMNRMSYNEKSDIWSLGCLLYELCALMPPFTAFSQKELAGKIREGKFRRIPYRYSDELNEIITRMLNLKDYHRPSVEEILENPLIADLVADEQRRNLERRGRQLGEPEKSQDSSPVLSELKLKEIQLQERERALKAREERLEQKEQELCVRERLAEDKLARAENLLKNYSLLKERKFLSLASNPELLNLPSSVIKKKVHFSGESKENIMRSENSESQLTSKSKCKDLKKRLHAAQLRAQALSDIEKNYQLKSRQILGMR

[31] = target: Mitogen-activated protein kinase kinase kinase 14 (Homo sapiens) (UniProt Q99558)
[32] = target: Mitogen-activated protein kinase 11 (Homo sapiens) (UniProt Q15759)
[33] = target: Cyclin-dependent kinase 18 (Homo sapiens) (UniProt Q07002)
[34] = tested on: Phosphatidylinositol 4,5-bisphosphate 3-kinase catalytic subunit alpha isoform (Homo sapiens), P42336 [E542K]
Phosphatidylinositol 4,5-bisphosphate 3-kinase catalytic subunit alpha isoform (Homo sapiens), P42336 [E542K], sequence (P42336 whole entry E542K, canonical isoform): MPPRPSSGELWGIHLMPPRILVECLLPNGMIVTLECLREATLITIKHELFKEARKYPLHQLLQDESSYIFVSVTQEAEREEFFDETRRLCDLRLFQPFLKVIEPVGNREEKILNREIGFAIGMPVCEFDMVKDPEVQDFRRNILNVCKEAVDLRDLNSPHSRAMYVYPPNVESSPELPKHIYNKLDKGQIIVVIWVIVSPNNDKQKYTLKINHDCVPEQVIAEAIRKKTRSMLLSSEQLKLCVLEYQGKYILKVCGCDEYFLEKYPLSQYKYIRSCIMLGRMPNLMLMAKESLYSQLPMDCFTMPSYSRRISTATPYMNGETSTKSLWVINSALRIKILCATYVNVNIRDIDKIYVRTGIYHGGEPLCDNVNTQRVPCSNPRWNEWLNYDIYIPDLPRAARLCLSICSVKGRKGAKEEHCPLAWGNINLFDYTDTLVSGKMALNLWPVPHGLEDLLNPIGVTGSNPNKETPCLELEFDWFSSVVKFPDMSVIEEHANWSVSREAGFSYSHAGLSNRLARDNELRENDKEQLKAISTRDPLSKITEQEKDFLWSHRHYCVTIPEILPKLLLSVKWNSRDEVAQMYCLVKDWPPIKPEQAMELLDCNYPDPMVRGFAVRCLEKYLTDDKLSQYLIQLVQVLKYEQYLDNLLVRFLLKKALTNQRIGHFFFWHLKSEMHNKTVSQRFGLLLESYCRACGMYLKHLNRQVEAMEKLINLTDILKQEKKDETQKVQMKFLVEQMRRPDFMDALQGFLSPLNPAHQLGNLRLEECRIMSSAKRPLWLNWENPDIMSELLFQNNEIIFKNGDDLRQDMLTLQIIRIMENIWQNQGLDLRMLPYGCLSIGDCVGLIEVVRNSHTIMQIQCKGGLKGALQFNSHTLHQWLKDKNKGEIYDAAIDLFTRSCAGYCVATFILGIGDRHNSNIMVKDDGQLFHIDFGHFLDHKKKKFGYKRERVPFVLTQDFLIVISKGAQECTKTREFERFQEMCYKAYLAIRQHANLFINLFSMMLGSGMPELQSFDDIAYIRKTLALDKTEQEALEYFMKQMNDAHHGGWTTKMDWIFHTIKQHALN

[35] = target: Phosphatidylinositol 4,5-bisphosphate 3-kinase catalytic subunit delta isoform (Homo sapiens) (UniProt O00329)
[36] = target: Phosphatidylinositol 4-phosphate 5-kinase type-1 gamma (Homo sapiens) (UniProt O60331)
[37] = target: Protein kinase C delta type (Homo sapiens) (UniProt Q05655)
[38] = target: Serine/threonine-protein kinase D1 (Homo sapiens) (UniProt Q15139)
[39] = target: RAF proto-oncogene serine/threonine-protein kinase (Homo sapiens) (UniProt P04049)
[40] = target: Ribosomal protein S6 kinase alpha-4 (Homo sapiens) (UniProt O75676)
[41] = target: Ribosomal protein S6 kinase alpha-5 (Homo sapiens) (UniProt O75582)
Ribosomal protein S6 kinase alpha-5 (Homo sapiens), sequence (O75582 whole entry, looked up): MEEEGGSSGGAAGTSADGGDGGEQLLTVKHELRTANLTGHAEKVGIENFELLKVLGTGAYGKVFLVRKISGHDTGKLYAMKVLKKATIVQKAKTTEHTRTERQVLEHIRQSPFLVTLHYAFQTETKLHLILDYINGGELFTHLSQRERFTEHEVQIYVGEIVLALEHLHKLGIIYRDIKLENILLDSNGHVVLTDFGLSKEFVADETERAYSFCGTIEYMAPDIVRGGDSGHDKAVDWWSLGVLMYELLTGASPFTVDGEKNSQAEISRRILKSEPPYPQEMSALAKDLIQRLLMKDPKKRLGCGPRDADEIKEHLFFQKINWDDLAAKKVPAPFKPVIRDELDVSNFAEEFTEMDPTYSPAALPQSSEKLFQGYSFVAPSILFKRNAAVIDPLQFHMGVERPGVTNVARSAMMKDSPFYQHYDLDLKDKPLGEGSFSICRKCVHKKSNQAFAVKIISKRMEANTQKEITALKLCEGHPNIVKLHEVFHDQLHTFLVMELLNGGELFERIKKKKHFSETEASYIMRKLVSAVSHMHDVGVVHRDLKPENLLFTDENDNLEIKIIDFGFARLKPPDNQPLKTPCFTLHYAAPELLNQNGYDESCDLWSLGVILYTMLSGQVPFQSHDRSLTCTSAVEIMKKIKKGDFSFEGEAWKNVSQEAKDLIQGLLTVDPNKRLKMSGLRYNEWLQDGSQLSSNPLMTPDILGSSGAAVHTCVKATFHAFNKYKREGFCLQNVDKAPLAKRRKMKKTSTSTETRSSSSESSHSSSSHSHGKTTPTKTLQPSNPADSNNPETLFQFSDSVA

[42] = target: Ribosomal protein S6 kinase alpha-5 (Homo sapiens) (UniProt O75582); remark: listed apart in the source
[43] = target: Ribosomal protein S6 kinase alpha-2 (Homo sapiens) (UniProt Q15349)
[44] = target: Serine/threonine-protein kinase tousled-like 2 (Homo sapiens) (UniProt Q86UE8)
Serine/threonine-protein kinase tousled-like 2 (Homo sapiens), sequence (Q86UE8 whole entry, looked up): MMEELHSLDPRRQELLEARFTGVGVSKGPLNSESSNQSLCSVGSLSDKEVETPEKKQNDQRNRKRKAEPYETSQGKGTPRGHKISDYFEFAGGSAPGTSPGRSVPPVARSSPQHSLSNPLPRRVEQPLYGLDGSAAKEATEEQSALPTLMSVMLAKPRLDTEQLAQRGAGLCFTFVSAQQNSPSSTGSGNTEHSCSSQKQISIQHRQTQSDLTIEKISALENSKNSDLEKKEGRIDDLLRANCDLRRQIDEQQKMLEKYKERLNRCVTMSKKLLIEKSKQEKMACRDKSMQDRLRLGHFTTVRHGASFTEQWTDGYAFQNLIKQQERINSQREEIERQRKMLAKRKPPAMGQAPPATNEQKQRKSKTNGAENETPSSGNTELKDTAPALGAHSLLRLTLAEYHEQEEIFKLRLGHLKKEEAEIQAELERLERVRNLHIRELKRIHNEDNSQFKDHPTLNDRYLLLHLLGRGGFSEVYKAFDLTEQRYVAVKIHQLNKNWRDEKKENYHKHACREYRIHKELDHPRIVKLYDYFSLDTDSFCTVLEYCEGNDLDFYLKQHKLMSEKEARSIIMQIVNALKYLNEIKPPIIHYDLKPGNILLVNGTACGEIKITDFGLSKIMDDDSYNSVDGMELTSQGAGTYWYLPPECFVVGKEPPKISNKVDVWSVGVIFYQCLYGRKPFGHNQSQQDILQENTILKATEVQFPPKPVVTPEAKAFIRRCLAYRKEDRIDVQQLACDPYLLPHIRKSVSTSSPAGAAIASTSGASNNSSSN

[45] = target: Mitogen-activated protein kinase kinase kinase 19 (Homo sapiens) (UniProt Q56UN5)

CSc1cccnc1N1CCN(Cc2nc3ccccc3[nH]2)CC1 [A-769]
residual activity [1]: 100% | residual activity [2]: 71% | residual activity [3]: 92% | residual activity [4]: 100% | residual activity [5]: 80% | residual activity [6]: 96% | residual activity [7]: 95% | residual activity [8]: 76% | residual activity [9]: 72% | residual activity [10]: 98% | residual activity [11]: 91% | residual activity [12]: 98% | residual activity [13]: 100% | residual activity [14]: 70% | residual activity [15]: 100% | residual activity [16]: 100% | residual activity [17]: 87% | residual activity [18]: 62% | residual activity [19]: 100% | residual activity [20]: 94% | residual activity [21]: 73% | residual activity [22]: 100% | residual activity [23]: 100% | residual activity [24]: 100% | residual activity [25]: 67% | residual activity [26]: 100% | residual activity [27]: 79% | residual activity [28]: 89% | residual activity [29]: 100% | residual activity [30]: 96% | residual activity [31]: 100% | residual activity [32]: 100% | residual activity [33]: 100% | residual activity [34]: 82% | residual activity [35]: 100% | residual activity [36]: 100% | residual activity [37]: 100% | residual activity [38]: 100% | residual activity [39]: 91% | residual activity [40]: 94% | residual activity [41]: 100% | residual activity [42]: 100% | residual activity [43]: 100% | residual activity [44]: 100% | residual activity [45]: 72%

c1ccc(N2CCN(Cc3nc4ccccc4[nH]3)CC2)nc1 [ABT-724]
residual activity [1]: 100% | residual activity [2]: 100% | residual activity [3]: 100% | residual activity [4]: 100% | residual activity [5]: 100% | residual activity [6]: 87% | residual activity [7]: 100% | residual activity [8]: 100% | residual activity [9]: 93% | residual activity [10]: 100% | residual activity [11]: 100% | residual activity [12]: 91% | residual activity [13]: 100% | residual activity [14]: 100% | residual activity [15]: 100% | residual activity [16]: 100% | residual activity [17]: 100% | residual activity [18]: 26% | residual activity [19]: 100% | residual activity [20]: 97% | residual activity [21]: 100% | residual activity [22]: 100% | residual activity [23]: 100% | residual activity [24]: 100% | residual activity [25]: 100% | residual activity [26]: 100% | residual activity [27]: 100% | residual activity [28]: 100% | residual activity [29]: 100% | residual activity [30]: 100% | residual activity [31]: 94% | residual activity [32]: 88% | residual activity [33]: 94% | residual activity [34]: 100% | residual activity [35]: 69% | residual activity [36]: 93% | residual activity [37]: 100% | residual activity [38]: 95% | residual activity [39]: 100% | residual activity [40]: 100% | residual activity [41]: 85% | residual activity [42]: 100% | residual activity [43]: 99% | residual activity [44]: 100% | residual activity [45]: 100%
